Measured values: US7125897B1, “Combined therapies for atherosclerosis treatment” (Vasogen Ireland Limited, priority 1999, dated 2006)

Assays:
Format in all cases: in vivo, human
[1] = Ankle/brachial artery pressure ratio (ABPI) in patient with intermittent claudication; conditions: left leg; for ankle/brachial artery pressure ratio (ABPI): margin of error 0.1
Method: (§1) The stressed blood treatment used in the study involves the collection of 10 ml of a patient's venous blood into 2-ml of sodium citrate 3.13% as anticoagulant. The blood sample is transferred to a sterile, disposable low-density polyethylene vessel (model #V7002) for ex vivo treatment and is then exposed to the following three stimuli: • 1) An elevated temperature of 42.5° C.±1.0° C. at steady state controlled and monitored with a thermocouple; • 2) a gas mixture of medical oxygen containing 14.5±1.0 ug/ml of ozone, at a flow rate of 240±24 ml/min for 3 minutes; • 3) Ultra-violet light at a wavelength of 253.7 nm, and a total energy of 2.0 joules/cm^2.
(§2) The ex vivo treatment of the patient's blood sample is performed within a Blood Treatment Unit (model #V7001), generally described in U.S. Pat. No. 4,968,483 Mueller. The Unit regulates and monitors these physicochemical agents. The temperature of the blood is raised to 42.5° C., a process that takes up to 8 minutes depending upon the starting temperature of the blood sample. Before this temperature is reached the UV lights turn on, so that they reach maximum output by the time that the gas flow is initiated, which occurs when the temperature of the blood reaches 42.5° C. The total time of exposure to UV light is about 9 minutes. The gas mixture is bubbled through the blood sample at a flow rate of 240±24 ml/min for a period of 3 minutes while the temperature of the blood is maintained and UV irradiation continues. At the end of the treatment with the three stimuli (stressors), the blood is allowed to settle for 7 minutes. The device then signals that the treatment has been completed successfully. The entire process takes about 20 minutes.
A person with intermittent claudication (a cramping pain caused by arterial obstruction and indicative of the presence of a relatively advanced stage of atherosclerosis) in their left leg, was administered fluvastatin 20 mg. daily for hypercholesterolemia. Their initial ankle/brachial artery pressure ratio (ABPI) in the left leg was 0.60, normal values being greater than 0.9. […]

[2] = Posterior tibial/brachial and dorsalis/brachial pressure index in patient with peripheral arterial occlusive disease
Method: as §1, §2
(§3) In a separate investigation, a patient suffering from peripheral arterial occlusive disease (a consequence of atherosclerosis) and receiving a regular, normal daily dose of lovastatin received 10 treatments of autologous stressed blood prepared as described above (10 ml aliquots, administered intramuscularly) over a 14-week period. As a result, their posterior tibial/brachial pressure index increased from 0.69 to 0.85, a very significant change.

[3] = Claudication distance in patient with peripheral arterial occlusive disease; conditions: regular daily lovastatin plus 10 i.m. treatments of 10 ml autologous stressed blood over 14 weeks
Method: as §3

[4] = regular daily lovastatin plus 10 i.m. treatments of 10 ml autologous stressed blood over 14 weeks
[5] = regular daily lovastatin, before stressed blood treatments

SMILES	ankle/brachial artery pressure ratio (ABPI) ([1]; fluvastatin 20 mg daily plus 9 i.m. treatments with 10 ml stressed autologous blood over 3 weeks)	ankle/brachial artery pressure ratio (ABPI) ([1]; fluvastatin 20 mg daily plus stressed blood, 2 months after the end of treatment schedule)	initial ankle/brachial artery pressure ratio (ABPI) ([1]; fluvastatin 20 mg daily, before stressed blood treatments, normal values greater than 0.9)	dorsalis (foot artery)/brachial pressure index [2, 4]	posterior tibial/brachial pressure index [2, 4]	dorsalis (foot artery)/brachial pressure index [2, 5]	posterior tibial/brachial pressure index [2, 5]	claudication distance (walking distance before experiencing cramping pain in the legs) [3]
CC(C)n1c(/C=C/C(O)CC(O)CC(=O)O)c(-c2ccc(F)cc2)c2ccccc21 (centres unmarked) [fluvastatin]	0.66	0.75	0.60					
CC[C@H](C)C(=O)O[C@H]1C[C@@H](C)C=C2C=C[C@H](C)[C@H](CC[C@@H]3C[C@@H](O)CC(=O)O3)[C@H]21 [lovastatin]				0.85	0.85	0.77	0.69	improved
